# Experimental data: US12357636B2 (Urovant Sciences GmbH, priority 2018, dated 2025)
# Like-named read-outs stand apart in the source and are kept apart here.
# Experiments:
# [1] = tested on: patients with overactive bladder
# Description: A placebo group was included in the main study, and a group that received tolterodine monotherapy was included in the main study and in the extension.
# [2] = human plasma protein binding; assay type: in vitro ADME
structure (smiles),measurement,setting,value
"O=C(Nc1ccc(C[C@@H]2CC[C@H]([C@H](O)c3ccccc3)N2)cc1)[C@@H]1CCc2nccc(=O)n21 [Vibegron, (6S)—N-[4-[[(2S,5R)-5-[(R)-hydroxy(phenyl)methyl]pyrrolidin-2-yl]methyl]phenyl]-4-oxo-7,8-dihydro-6H-pyrrolo[1,2-a]pyrimidine-6-carboxamide]",Accidental overdose,[1]; 3 mg QD,3 (2.1) n (%)
same,Accidental overdose,[1]; 15 mg QD,6 (4.5) n (%)
same,Accidental overdose,[1]; 50 mg QD,4 (2.7) n (%)
same,Accidental overdose,[1]; 100 mg QD,11 (4.2) n (%)
same,≥1 AE,[1]; 100 mg QD,107 (41.0) n (%)
same,frequency of injuries,"[1]; human, in vivo",0.9%
same,bound to human plasma proteins,[2],approximately 49%
